Laboratory results: PubChem BioAssay (NCI)
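Step 1: Grow cells in 96-well plates. Step 2: Expose to compound for 48 hours at 5 concentrations. Step 3: Interpolate endpoints linearly; if unreached, use highest concentration. At the GI50, growth is halved. TGI marks complete inhibition of growth.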

Tests used:
Assay in all cases: NCI-60 cell line screen, 48 h; in the data active = GI50 below about 0.43 µM; inactive = the rest
A498 renal = tested on: A498 renal
HCT-15 colon = tested on: HCT-15 colon
HOP-62 NSCLC = tested on: HOP-62 NSCLC
IGROV1 ovarian = tested on: IGROV1 ovarian
LOX IMVI melanoma = tested on: LOX IMVI melanoma
NCI-H460 lung = tested on: NCI-H460 lung
OVCAR-5 ovarian = tested on: OVCAR-5 ovarian
SK-OV-3 ovarian = tested on: SK-OV-3 ovarian
SNB-75 CNS = tested on: SNB-75 CNS
UACC-62 melanoma = tested on: UACC-62 melanoma

COc1ccccc1OCC(O)CO (stereo not given)
> 100 µM: TGI (A498 renal) | TGI (HCT-15 colon) | TGI (HOP-62 NSCLC) | TGI (IGROV1 ovarian) | TGI (LOX IMVI melanoma) | TGI (NCI-H460 lung) | TGI (OVCAR-5 ovarian) | TGI (SK-OV-3 ovarian) | TGI (SNB-75 CNS) | TGI (UACC-62 melanoma)
inactive: GI50 (A498 renal) > 100 µM | GI50 (HCT-15 colon) > 100 µM | GI50 (HOP-62 NSCLC) > 100 µM | GI50 (IGROV1 ovarian) > 100 µM | GI50 (LOX IMVI melanoma) > 100 µM | GI50 (NCI-H460 lung) > 100 µM | GI50 (OVCAR-5 ovarian) > 100 µM | GI50 (SK-OV-3 ovarian) > 100 µM | GI50 (SNB-75 CNS) > 100 µM | GI50 (UACC-62 melanoma) > 100 µM
